Source: US20230398153A1, “A METHOD FOR EFFICIENT MICROGLIA REPLACEMENT” (The Board of Trustees of the Leland Stanford Junior …, priority 2020, published 2023)

System: brain myeloid cells (CD45+CD11b+)
Experiment: HSCT followed by PLX5622 treatment: donor (GFP+) myeloid chimerism in the brain by flow cytometry
Assay type: in vivo, mouse
Text: Microglia depletion after HSCT results in near complete replacement of microglia with bone marrow-derived cells throughout the entire brain. We next tested whether CSF1R inhibition after HSCT enhanced microglia replacement. We therefore performed conventional HSCT with GFP-labeled fresh bone marrow cells. After 28 days, we treated the experimental group with PLX5622 for 10 days and the control group received no drug (FIG. 2A). After another 10 days (7 weeks post transplant) we analyzed the brains and consistently found over 90% of all brain myeloid cells to be GFP^+ by flow cytometry (FIG. 2B, C). […] The transplanted CDMCs had homogeneously populated the entire brain (FIG. 2E). Importantly, this high chimerism was stable and CDMCs remained incorporated for at least 6 months after transplantation (FIG. 2C, 9E).
PLX5622 was provided by Plexxikon Inc. and incorporated to AIN-76A standard chow by Research Diets Inc. at 1200 mg/kg.
Unless otherwise noted, we used female mice at age of 8-12 weeks for both recipients and donors. WT mice were pre-treated with PLX5622 diet between day-21 and day −1 (21 days) and/or busulfan between day-6 and −2 day (5 days). For busulfan pre-treatment, mice received five intraperitoneal (IP) injections of busulfan (sigma, B1 170000) at 25 mg/kg body weight per day. On day 0, bone marrow cells (BMCs) were isolated from tibias and femurs of UBC-GFP mice. Isolated BMCs were resuspended in 1×red blood cell lysis buffer (e-bioscience, 00-4300-54) and incubated for 20 min at room temperature. BMCs were passed through 70 μm cell strainer, washed by applying 10 ml of ice cold PBS and then resuspended in fresh PBS. BMCs (5×10^6) in 200 ul PBS were injected into the retro-orbital sinus of the pre-conditioned recipients. On day 28, the recipient mice were treated with PLX5622 or control diet for 10 days. For tamoxifen injection, tamoxifen (sigma T5648) in corn oil (sigma, C8267) was provided by IP injection to the recipient mice at 200 mg/kg at the indicated time points after bone marrow transplantation.
Microglia cells were isolated from adult mouse brains as described (Shibuya et al., 2014). Anesthetized mice (100 mg/kg of ketamin and 10 mg/kg of xylazine, i.p.) were perfused through the left ventricle with ice-cold PBS without Ca^2+ and Mg^2+. Brains were removed and cut into two pieces along the midline. One hemisphere was immediately transferred to 4% paraformaldehyde for fixation. The other hemi-sphere was minced with a surgical knife, and then transferred to ice-cold HBSS without Ca^2+ and Mg^2+. Minced hemi-brains were centrifuged at 300×g for 2 min at room temperature and then enzymatically digested at 37° C. for 35 min by using Neural Tissue Dissociation Kit (Miltenyi Biotec, 130-092-628) according to the manufacturer's protocol. The cell suspension was passed through a 70 µm cell strainer and washed by applying 10 ml of HBSS with Ca^2+ and Mg^2+ to the strainer. The cell suspension was centrifuged at 300×g for 10 min at room temperature, re-suspended in 30% Percoll (GE Healthcare Lifesciences, 17089102), and then centrifuged at 700×g for 10 min at 4° C. The supernatant containing the myelin was removed and the pellet was washed with 10 ml of HBSS with Ca^2+ and Mg^2+. The resulting pellet was resuspended in FACS buffer and subjected to antibody staining for flow cytometry. Microglia/CDMCs were identified using anti-CD45 and anti-CD11b antibodies.
The following FACS antibodies were used in this study. CD11b (clone M1/70, BioLegend), CD45 (Clone 30-F11, BD biosciences), F4/80 (clone BM8, biolegend), CCR2 (clone SA203G11, biolegend), gp49A/B (clone H1.1), CD115 (CSF1R) (clone AFS98, biolegend), CD117 (c-kit) (clone 2B8, BD biosciences), sca-1 (clone D7, biolegend), cd127 (IL7Ra)(clone SB/199, biolegend), CD16/CD32 (FcR Ill/II) (clone 93, biolegend), CX3CR1 (clone K0124E1, biolegend), cd135 (Flk-2,)(clone A2F10) CD34 (clone561, biolegend), and Ly6C (clone RB6-8C5). […]

COc1ncc(F)cc1CNc1ccc(Cc2c[nH]c3ncc(C)cc23)c(F)n1 [PLX5622]
engraftment of CDMCs into the brain (PLX5622 between days 14 and 24 after HSCT, flow cytometry on D34): comparably robust and efficient engraftment
fraction of GFP+ cells among brain myeloid cells (PLX5622 pre-treatment before HSCT (busulfan+PLX5622 group), 14 days post IV injection): only a marginal increase
expression of microglia-specific marker TMEM119 in CDMCs (PLX5622 treatment following HSCT, cortex, d83): induced expression of the microglia-specific marker TMEM119 in CDMCs
duration CDMCs remained incorporated (stable high chimerism) (after transplantation, PLX5622 10 days from D28): at least 6 months
brain myeloid cells GFP+ by flow cytometry (busulfan HSCT, PLX5622 10 days from D28, analysed after another 10 days (7 weeks post transplant)): over 90%
CDMCs (GFP+) and microglia (GFP-) numbers during PLX5622 treatment (flow cytometry during treatment after HSCT): both cell populations were diminished to similar degrees
